From patent EP4781993A1, “ANTIBACTERIAL COMPOSITION AND ANTIBACTERIAL DRUG” (Shenzhen China Resources Gosun Pharmaceuticals Co., Ltd., priority 2023, dated 2025)
Structures can show the parent of a compound that is named as a salt. Values belong to the compound of their own block, whether it stands above or below them.

Legend:
[1] = tested on: KPC-2 producing Klebsiella pneumoniae; assay: Broth-microdilution MIC (CLSI M07-A11) against clinical isolates; assay type: cell-based; set-up: Drug concentration: unit: mg/L; settings: for MIC range / Mode / MIC50 / MIC90: 12 strains; for MIC range / MIC50 / MIC90: MIC = ceftobiprole concentration (groups A2, B2, C2, D2, E2: inhibitor alone); for Mode: mode of MIC; for antibacterial activity: verdict in words; for MIC50 / MIC90: Klebsiella pneumoniae; for MIC50: read-out: MIC50; for MIC90: read-out: MIC90; for Drug concentration: unit not given in Table 3
Source text: (§1) As recommended by CLSI (Clinical and Laboratory Standards Institute) M07-A11 (2018 edition), the Broth-microdilution method is adopted to determine the minimum inhibitory concentration (MIC) of ceftobiprole and zidebactam against clinical isolates. It should be noted that, in the present disclosure, MIC50 refers to the minimum drug concentration that inhibits the growth of 50% of the tested bacteria, and MIC90 refers to the minimum drug concentration that inhibits the growth of 90% of the tested bacteria.
(§2) Antibacterial drug: ceftobiprole, manufacturer: Shenyang Sanjiu Pharmaceutical, content: 92.1%, batch number: YF/BALP141/000. Zidebactam, manufacturer: Target M01 company, batch number: 149661. Zidebactam, as described above, the English name is Zidebactam, and the chemical name is: (2S,5R)-7-oxo-2-(2-((R)-piperidine-3-carbonyl)hydrazine-1-carbonyl)-1,6-diazabicyclo[3.2.1]octan-6-yl hydrogen sulfate.
(§3) Tested strains: a total of 24 genotypic strains producing KPC or OXA β-lactamase. Specifically, the tested strains include 24 strains of Klebsiella pneumoniae, including 12 KPC-2 producing strains and 12 OXA-232 producing strains.
(§4) Quality control strains: Escherichia coli ATCC 25922, (KPC-2 producing) Klebsiella pneumoniae ATCC BAA-1705, and (NDM-1 producing) Klebsiella pneumoniae ATCC BAA-2146.
(§5) Medium: cation-adjusted Mueller-Hinton broth (CAMHB), a product of BBL Company, USA.
(§6) Inoculum size: Pure isolated colonies were adjusted with normal saline to 0.5 McFarland turbidity. After appropriate dilution, the suspension was added to the wells of a 96-well U-bottom microplate (containing 50 µL antibacterial drug solution). The inoculum size was 5 × 10^5 CFU/mL.
(§7) Culture conditions: air environment, 35°C ± 2°C, 16 to 20 hours.
(§8) Preparation of Antibacterial Drug Solution : Ceftobiprole and zidebactam were taken separately, dissolution and dilution were performed according to the antibacterial drug reference to the CLSI standards and the drug package insert, A1 to A6, a total of 6 groups of antibacterial drug solutions, were prepared, among which, group A1 was the control group containing solely the single agent ceftobiprole, and group A2 was the control group containing solely the single agent zidebactam. Different antibacterial drug solutions with ceftobiprole concentrations ranging from 128 mg/L to 0.06 mg/L were respectively included in groups A1 and A3 to A6, and different antibacterial drug solutions with zidebactam concentrations ranging from 128 mg/L to 0.06 mg/L were included in group A2. The specific concentrations within the range of 128 mg/L to 0.06 mg/L in groups A1 to A6 were respectively 128 mg/L, 64 mg/L, 32 mg/L, 16 mg/L, 8 mg/L, 4 mg/L, 2 mg/L, 1 mg/L, 0.5 mg/L, 0.25 mg/L, 0.125 mg/L, or 0.06 mg/L, respectively. Table 1. Concentrations of ceftobiprole/zidebactam contained in the antibacterial drug solutions of groups A1 to A6
(§9) Experimental results: Currently, there are no established CLSI or EUCAST breakpoints for ceftobiprole/β-lactamase inhibitor. Therefore, the antibacterial activity of ceftobiprole/β-lactamase inhibitor is evaluated in accordance with the standards for ceftobiprole. WHONET 5.6 software is used to perform statistical analysis on the results of antibacterial susceptibility test. The fractional inhibitory concentration index (FIC) for the combination of ceftobiprole and zidebactam is calculated according to Equation (1). FIC index = (MIC of drug A in combination)/(MIC of drug A alone) + (MIC of drug B in combination)/(MIC of drug B alone) [formula]
(§10) In Equation (1), drug A is ceftobiprole, and drug B is zidebactam. […] Table 2. In vitro antibacterial activity of ceftobiprole/zidebactam against the tested bacteria in Example 1 […]

[2] = tested on: OXA-232 producing Klebsiella pneumoniae; assay: as above; assay type: cell-based; set-up: Drug concentration: unit: mg/L; settings: for MIC range / Mode / MIC50 / MIC90: 12 strains; for MIC range / MIC50 / MIC90: MIC = ceftobiprole concentration (groups A2, B2, C2, D2, E2: inhibitor alone); for Mode: mode of MIC; for antibacterial activity: verdict in words; for MIC50 / MIC90: Klebsiella pneumoniae; for Drug concentration: unit not given in Table 3
Source text: as §1, §2, §3, §4, §5, §6, §7, §8, §9, §10

- MIC range [1]: >128 µg/mL
- MIC range [2]: >128 µg/mL
Compound: (3R,6S)-2-hydroxy-3-[[2-(2-thienyl)acetyl]amino]-1,2-oxaborinane-6-acetic acid [Group B2]
- Cumulative inhibition rate (%) ([1]; MIC >128 mg/L): 100%
- Cumulative number of strains ([1]; MIC >128 mg/L): 12
- Number of strains ([1]; MIC >128 mg/L): 12
- Mode [1]: >128 mg/L
- antibacterial activity [1]: no antibacterial activity
- Cumulative inhibition rate (%) ([2]; MIC >128 mg/L): 100%
- Cumulative number of strains ([2]; MIC >128 mg/L): 12
- Number of strains ([2]; MIC >128 mg/L): 12
- Mode [2]: >128 mg/L
- antibacterial activity [2]: no antibacterial activity

- MIC50 [1]: > 128 µg/mL
- MIC90 [1]: > 128 µg/mL
- MIC50 [2]: > 128 µg/mL
- MIC90 [2]: > 128 µg/mL
Compound: O=C(NC1CCNCC1)[C@@H]1CC[C@@H]2CN1C(=O)N2OS(=O)(=O)O [Group C2, (1R,2S,5R)-7-oxo-2-(piperidin-4-ylcarbamoyl)-1,6-diazabicyclo[3.2.1]octan-6-yl hydrogen sulfate]
- Cumulative inhibition rate (%) ([1]; MIC 128 mg/L): 25%
- Cumulative number of strains ([1]; MIC 128 mg/L): 3
- Number of strains ([1]; MIC 128 mg/L): 3
- Cumulative inhibition rate (%) ([1]; MIC >128 mg/L): 100%
- Cumulative number of strains ([1]; MIC >128 mg/L): 12
- Number of strains ([1]; MIC >128 mg/L): 9
- Mode [1]: >128 mg/L
- antibacterial activity [1]: no antibacterial activity
- Cumulative inhibition rate (%) ([2]; MIC 128 mg/L): 41.7%
- Cumulative number of strains ([2]; MIC 128 mg/L): 5
- Number of strains ([2]; MIC 128 mg/L): 5
- Cumulative inhibition rate (%) ([2]; MIC >128 mg/L): 100%
- Cumulative number of strains ([2]; MIC >128 mg/L): 12
- Number of strains ([2]; MIC >128 mg/L): 7
- Mode [2]: >128 mg/L
- antibacterial activity [2]: no antibacterial activity

- MIC range [1]: >128 µg/mL
- MIC50 [1]: > 128 µg/mL
- MIC90 [1]: > 128 µg/mL
- MIC range [2]: >128 µg/mL
- MIC50 [2]: > 128 µg/mL
- MIC90 [2]: > 128 µg/mL
Compound: NCCN[C@H]1CC[C@H](CC(=O)N[C@H]2Cc3cccc(C(=O)O)c3OB2O)CC1 [Group D2, (R)-3-(2-((1r,4R)-4-((2-aminoethyl)amino)cyclohexyl)acetamido)-2-hydroxy-3,4-dihydro-2H-benzo[e][1,2]oxaborinine-8-carboxylic acid]
- Cumulative inhibition rate (%) ([1]; MIC >128 mg/L): 100%
- Cumulative number of strains ([1]; MIC >128 mg/L): 12
- Number of strains ([1]; MIC >128 mg/L): 12
- Mode [1]: >128 mg/L
- antibacterial activity [1]: no antibacterial activity
- Cumulative inhibition rate (%) ([2]; MIC >128 mg/L): 100%
- Cumulative number of strains ([2]; MIC >128 mg/L): 12
- Number of strains ([2]; MIC >128 mg/L): 12
- Mode [2]: >128 mg/L
- antibacterial activity [2]: no antibacterial activity

- MIC range [1]: >128 µg/mL
- MIC50 [1]: ≥ 128 µg/mL
- MIC90 [1]: ≥ 128 µg/mL
- MIC range [2]: >128 µg/mL
- MIC50 [2]: ≥ 128 µg/mL
- MIC90 [2]: ≥ 128 µg/mL
Compound: C[n+]1ccn(C[C@@]2(C)[C@H](C(=O)[O-])N3C(=O)C[C@H]3S2(=O)=O)n1 [Group E2, (2S,3S,5R)-3-methyl-3-[(3-methyltriazol-3-ium-1-yl)methyl]-4,4,7-trioxo-4-amino-6-thia-1-azabicyclo[3.2.0]heptane-2-carboxylate]
- Cumulative inhibition rate (%) ([1]; MIC >128 mg/L): 100%
- Cumulative number of strains ([1]; MIC >128 mg/L): 12
- Number of strains ([1]; MIC >128 mg/L): 12
- Mode [1]: >128 mg/L
- antibacterial activity [1]: no antibacterial activity
- Cumulative inhibition rate (%) ([2]; MIC >128 mg/L): 100%
- Cumulative number of strains ([2]; MIC >128 mg/L): 12
- Number of strains ([2]; MIC >128 mg/L): 12
- Mode [2]: >128 mg/L
- antibacterial activity [2]: no antibacterial activity

- MIC50 [1]: > 128 µg/mL
- MIC90 [1]: > 128 µg/mL
- MIC50 [2]: 64 µg/mL
- MIC90 [2]: > 128 µg/mL
Compound: O=C(NNC(=O)[C@@H]1CC[C@@H]2CN1C(=O)N2OS(=O)(=O)O)[C@@H]1CCCNC1 [Group A2, (2S,5R)-7-oxo-2-(2-((R)-piperidine-3-carbonyl)hydrazine-1-carbonyl)-1,6-diazabicyclo[3.2.1]octan-6-yl hydrogen sulfate]
- Cumulative inhibition rate (%) ([1]; MIC 1 mg/L): 8.3%
- Cumulative number of strains ([1]; MIC 1 mg/L): 1
- Number of strains ([1]; MIC 1 mg/L): 1
- Cumulative inhibition rate (%) ([1]; MIC 128 mg/L): 41.7%
- Cumulative number of strains ([1]; MIC 128 mg/L): 5
- Number of strains ([1]; MIC 128 mg/L): 4
- Cumulative inhibition rate (%) ([1]; MIC >128 mg/L): 100%
- Cumulative number of strains ([1]; MIC >128 mg/L): 12
- Number of strains ([1]; MIC >128 mg/L): 7
- Mode [1]: >128 mg/L
- Drug concentration ([1]; strain 18-W09-043 (kpn, KPC-2)): >128
- Drug concentration ([1]; strain 18-W09-045 (kpn, KPC-2)): >128
- Drug concentration ([1]; strain 18-W09-046 (kpn, KPC-2)): 128
- Drug concentration ([1]; strain 18-W09-047 (kpn, KPC-2)): 128
- Drug concentration ([1]; strain 18-W09-049 (kpn, KPC-2)): >128
- Drug concentration ([1]; strain 18-W09-050 (kpn, KPC-2)): 128
- Drug concentration ([1]; strain 18-W09-051 (kpn, KPC-2)): >128
- Drug concentration ([1]; strain 18-W13-043 (kpn, KPC-2)): >128
- Drug concentration ([1]; strain 18-W13-044 (kpn, KPC-2)): >128
- Drug concentration ([1]; strain 18-W13-045 (kpn, KPC-2)): 128
- Drug concentration ([1]; strain 18-W13-046 (kpn, KPC-2)): >128
- Drug concentration ([1]; strain 18-W13-047 (kpn, KPC-2)): 1
- Cumulative inhibition rate (%) ([2]; MIC 1 mg/L): 8.3%
- Cumulative number of strains ([2]; MIC 1 mg/L): 1
- Number of strains ([2]; MIC 1 mg/L): 1
- Cumulative inhibition rate (%) ([2]; MIC 2 mg/L): 16.7%
- Cumulative number of strains ([2]; MIC 2 mg/L): 2
- Number of strains ([2]; MIC 2 mg/L): 1
- Cumulative inhibition rate (%) ([2]; MIC 4 mg/L): 33.3%
- Cumulative number of strains ([2]; MIC 4 mg/L): 4
- Number of strains ([2]; MIC 4 mg/L): 2
- Cumulative inhibition rate (%) ([2]; MIC 8 mg/L): 41.7%
- Cumulative number of strains ([2]; MIC 8 mg/L): 5
- Number of strains ([2]; MIC 8 mg/L): 1
- Cumulative inhibition rate (%) ([2]; MIC 64 mg/L): 50%
- Cumulative number of strains ([2]; MIC 64 mg/L): 6
- Number of strains ([2]; MIC 64 mg/L): 1
- Cumulative inhibition rate (%) ([2]; MIC 128 mg/L): 66.7%
- Cumulative number of strains ([2]; MIC 128 mg/L): 8
- Number of strains ([2]; MIC 128 mg/L): 2
- Cumulative inhibition rate (%) ([2]; MIC >128 mg/L): 100%
- Cumulative number of strains ([2]; MIC >128 mg/L): 12
- Number of strains ([2]; MIC >128 mg/L): 4
- Mode [2]: >128 mg/L
- Drug concentration ([2]; strain 20-W4-001 (kpn, OXA-232)): >128
- Drug concentration ([2]; strain 20-W4-002 (kpn, OXA-232)): >128
- Drug concentration ([2]; strain 20-W4-003 (kpn, OXA-232)): 4
- Drug concentration ([2]; strain 20-W4-004 (kpn, OXA-232)): >128
- Drug concentration ([2]; strain 20-W4-005 (kpn, OXA-232)): 128
- Drug concentration ([2]; strain 20-W4-007 (kpn, OXA-232)): 2
- Drug concentration ([2]; strain 20-W4-008 (kpn, OXA-232)): 64
- Drug concentration ([2]; strain 20-W4-009 (kpn, OXA-232)): 128
- Drug concentration ([2]; strain 20-W4-010 (kpn, OXA-232)): 1
- Drug concentration ([2]; strain 20-W4-011 (kpn, OXA-232)): 8
- Drug concentration ([2]; strain 20-W4-012 (kpn, OXA-232)): >128
- Drug concentration ([2]; strain 20-W4-013 (kpn, OXA-232)): 4
